Source: PubChem BioAssay (NCI)
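Five concentrations, 48 hours, 96-well plates. GI50 = concentration required for 50% inhibition of growth. TGI marks complete inhibition of growth.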

Legend:
Experiment in all cases: growth of human tumour cells (NCI), 48 h
OVCAR-8 ovarian = tested on: OVCAR-8 ovarian
SR leukemia = tested on: SR leukemia
MOLT-4 leukemia = tested on: MOLT-4 leukemia
HCT-15 colon = tested on: HCT-15 colon
ACHN renal = tested on: ACHN renal
A549 NSCLC = tested on: A549 NSCLC
K-562 leukemia = tested on: K-562 leukemia
U251 CNS = tested on: U251 CNS
NCI-H23 lung = tested on: NCI-H23 lung
A498 renal = tested on: A498 renal
SF-539 CNS = tested on: SF-539 CNS
SK-OV-3 ovarian = tested on: SK-OV-3 ovarian
MDA-MB-435 = tested on: MDA-MB-435
M14 melanoma = tested on: M14 melanoma
TK-10 renal = tested on: TK-10 renal
OVCAR-5 ovarian = tested on: OVCAR-5 ovarian
UACC-62 melanoma = tested on: UACC-62 melanoma
COLO 205 colon = tested on: COLO 205 colon
HL-60(TB) leukemia = tested on: HL-60(TB) leukemia
KM12 colon = tested on: KM12 colon
SF-295 CNS = tested on: SF-295 CNS
T-47D breast = tested on: T-47D breast
HCC-2998 colon = tested on: HCC-2998 colon
SK-MEL-28 melanoma = tested on: SK-MEL-28 melanoma
SK-MEL-2 melanoma = tested on: SK-MEL-2 melanoma
OVCAR-4 ovarian = tested on: OVCAR-4 ovarian
SK-MEL-5 melanoma = tested on: SK-MEL-5 melanoma
RPMI-8226 leukemia = tested on: RPMI-8226 leukemia
786-0 renal = tested on: 786-0 renal
SN12C renal = tested on: SN12C renal
HT29 colon = tested on: HT29 colon
IGROV1 ovarian = tested on: IGROV1 ovarian
DU-145 prostate = tested on: DU-145 prostate
UO-31 renal = tested on: UO-31 renal
LOX IMVI melanoma = tested on: LOX IMVI melanoma
SNB-75 CNS = tested on: SNB-75 CNS
NCI-H460 lung = tested on: NCI-H460 lung
CCRF-CEM leukemia = tested on: CCRF-CEM leukemia
NCI-H522 lung = tested on: NCI-H522 lung
SNB-19 CNS = tested on: SNB-19 CNS
MCF7 breast = tested on: MCF7 breast
HOP-92 NSCLC = tested on: HOP-92 NSCLC
BT-549 breast = tested on: BT-549 breast
PC-3 prostate = tested on: PC-3 prostate
HOP-62 NSCLC = tested on: HOP-62 NSCLC
MDA-MB-231 breast = tested on: MDA-MB-231 breast
NCI-H226 lung = tested on: NCI-H226 lung
OVCAR-3 ovarian = tested on: OVCAR-3 ovarian
EKVX NSCLC = tested on: EKVX NSCLC
MALME-3M melanoma = tested on: MALME-3M melanoma
SF-268 CNS = tested on: SF-268 CNS
MDA-MB-468 breast = tested on: MDA-MB-468 breast
HCT-116 colon = tested on: HCT-116 colon
CAKI-1 renal = tested on: CAKI-1 renal
HS 578T breast = tested on: HS 578T breast
UACC-257 melanoma = tested on: UACC-257 melanoma
RXF 393 renal = tested on: RXF 393 renal
SW-620 colon = tested on: SW-620 colon

For `COc1cccc(-c2c(C#N)c(-c3ccc(Cl)cc3)nc3n[nH]c(-c4ccc(Cl)cc4)c23)c1`, the GI50 (OVCAR-8 ovarian) was 20.9 µM, the TGI (OVCAR-8 ovarian) was over 100 µM and the GI50 (SR leukemia) was 7.09 µM. The TGI (SR leukemia) was 50.3 µM, the GI50 (MOLT-4 leukemia) was 3.45 µM and the TGI (MOLT-4 leukemia) was 49.2 µM. For the same compound, the GI50 (HCT-15 colon) was 4.16 µM, the TGI (HCT-15 colon) was 27.8 µM and the GI50 (ACHN renal) was 13.6 µM. The TGI (ACHN renal) was over 100 µM, the GI50 (A549 NSCLC) was 15.1 µM and the TGI (A549 NSCLC) was over 100 µM. The GI50 (K-562 leukemia) was 4.01 µM, the TGI (K-562 leukemia) was 78.6 µM and the GI50 (U251 CNS) was 13.6 µM. For the same compound, the TGI (U251 CNS) was over 100 µM, the GI50 (NCI-H23 lung) was 13.6 µM and the TGI (NCI-H23 lung) was over 100 µM. The GI50 (A498 renal) was 33.3 µM, the TGI (A498 renal) was over 100 µM and the GI50 (SF-539 CNS) was 8.28 µM. The TGI (SF-539 CNS) was 25.9 µM, the GI50 (SK-OV-3 ovarian) was 18.1 µM and the TGI (SK-OV-3 ovarian) was 98.7 µM. It also gave a GI50 (MDA-MB-435) of 13.4 µM, a TGI (MDA-MB-435) of 37.2 µM and a GI50 (M14 melanoma) of 9.82 µM. It also gave a TGI (M14 melanoma) of 34.1 µM, a GI50 (TK-10 renal) of 38 µM and a TGI (TK-10 renal) of over 100 µM. The GI50 (OVCAR-5 ovarian) was 11.2 µM, the TGI (OVCAR-5 ovarian) was 50.8 µM and the GI50 (UACC-62 melanoma) was 12.6 µM. It also gave a TGI (UACC-62 melanoma) of 29.1 µM, a GI50 (COLO 205 colon) of 11.3 µM and a TGI (COLO 205 colon) of 25.2 µM. It also gave a GI50 (HL-60(TB) leukemia) of 4.77 µM, a TGI (HL-60(TB) leukemia) of 43.5 µM and a GI50 (KM12 colon) of 8.81 µM. For the same compound, the TGI (KM12 colon) was over 100 µM, the GI50 (SF-295 CNS) was 12.1 µM and the TGI (SF-295 CNS) was 33 µM. For the same compound, the GI50 (T-47D breast) was 3.42 µM, the TGI (T-47D breast) was 77.8 µM and the GI50 (HCC-2998 colon) was 6.14 µM. For the same compound, the TGI (HCC-2998 colon) was 31 µM, the GI50 (SK-MEL-28 melanoma) was 17.8 µM and the TGI (SK-MEL-28 melanoma) was 74.8 µM. The GI50 (SK-MEL-2 melanoma) was 13.9 µM, the TGI (SK-MEL-2 melanoma) was 30.1 µM and the GI50 (OVCAR-4 ovarian) was 4.96 µM. It also gave a TGI (OVCAR-4 ovarian) of 86.4 µM, a GI50 (SK-MEL-5 melanoma) of 12.4 µM and a TGI (SK-MEL-5 melanoma) of 26.3 µM. The GI50 (RPMI-8226 leukemia) was 4.44 µM, the TGI (RPMI-8226 leukemia) was over 100 µM and the GI50 (786-0 renal) was 11.2 µM. For the same compound, the TGI (786-0 renal) was over 100 µM, the GI50 (SN12C renal) was 12 µM and the TGI (SN12C renal) was over 100 µM. For the same compound, the GI50 (HT29 colon) was 9.76 µM, the TGI (HT29 colon) was 29.8 µM and the GI50 (IGROV1 ovarian) was 16 µM. The TGI (IGROV1 ovarian) was 68 µM, the GI50 (DU-145 prostate) was 21 µM and the TGI (DU-145 prostate) was over 100 µM. The GI50 (UO-31 renal) was 2380 nM, the TGI (UO-31 renal) was 72.7 µM and the GI50 (LOX IMVI melanoma) was 10.6 µM. It also gave a TGI (LOX IMVI melanoma) of 28.9 µM, a GI50 (SNB-75 CNS) of 12.7 µM and a TGI (SNB-75 CNS) of 64.3 µM. The GI50 (NCI-H460 lung) was 13.5 µM, the TGI (NCI-H460 lung) was 46.7 µM and the GI50 (CCRF-CEM leukemia) was 6.56 µM. The TGI (CCRF-CEM leukemia) was over 100 µM, the GI50 (NCI-H522 lung) was 16.1 µM and the TGI (NCI-H522 lung) was 92.7 µM. The GI50 (SNB-19 CNS) was 20 µM, the TGI (SNB-19 CNS) was over 100 µM and the GI50 (MCF7 breast) was 6 µM. It also gave a TGI (MCF7 breast) of over 100 µM, a GI50 (HOP-92 NSCLC) of 2350 nM and a TGI (HOP-92 NSCLC) of 9.24 µM. The GI50 (BT-549 breast) was 6.07 µM, the TGI (BT-549 breast) was 27.4 µM and the GI50 (PC-3 prostate) was 3.19 µM. The TGI (PC-3 prostate) was over 100 µM, the GI50 (HOP-62 NSCLC) was 16.4 µM and the TGI (HOP-62 NSCLC) was 80.6 µM. For the same compound, the GI50 (MDA-MB-231 breast) was 12.8 µM, the TGI (MDA-MB-231 breast) was 35.1 µM and the GI50 (NCI-H226 lung) was 11.9 µM. For the same compound, the TGI (NCI-H226 lung) was 49.1 µM, the GI50 (OVCAR-3 ovarian) was 9.27 µM and the TGI (OVCAR-3 ovarian) was 80 µM. The GI50 (EKVX NSCLC) was 11.8 µM, the TGI (EKVX NSCLC) was over 100 µM and the GI50 (MALME-3M melanoma) was 11.5 µM. It also gave a TGI (MALME-3M melanoma) of 31.7 µM, a GI50 (SF-268 CNS) of 14.8 µM and a TGI (SF-268 CNS) of over 100 µM. For the same compound, the GI50 (MDA-MB-468 breast) was 19.1 µM, the TGI (MDA-MB-468 breast) was over 100 µM and the GI50 (HCT-116 colon) was 4.66 µM. It also gave a TGI (HCT-116 colon) of 26.2 µM, a GI50 (CAKI-1 renal) of 7.91 µM and a TGI (CAKI-1 renal) of 32.9 µM. The GI50 (HS 578T breast) was 11.1 µM, the TGI (HS 578T breast) was 89.6 µM and the GI50 (UACC-257 melanoma) was 22.7 µM. It also gave a TGI (UACC-257 melanoma) of 93.3 µM, a GI50 (RXF 393 renal) of 11.5 µM and a TGI (RXF 393 renal) of 79.3 µM. For the same compound, the GI50 (SW-620 colon) was 21.2 µM and the TGI (SW-620 colon) was over 100 µM.
